From the supplement of paper PMC10307832

Tests used:
Experiment in all cases: relative viability (nuclei count vs DMSO), 5 days (fraction); higher = more cells survive
[1] = compound: C1=CC=C(C(=C1)C2=CC=C(C=C2)C3=CSC4=C3C(=C(C(=O)N4)C#N)O)O + O=C(c1cc(Cc2n[nH]c(=O)c3ccccc23)ccc1F)N1CCN(C(=O)C2CC2)CC1 [Olaparib] (partner 8 µM)
In short: (§1)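 Lung cancer cell lines, seeded in 1536-well plates, were treated the following day by pin tool with a single drug or with five library-drug doses (not always all listed) in √10 steps on top of a fixed anchor-drug dose. Cells were fixed and nuclei stained in one step after 5 days, and nuclei were counted. Relative viability is the nuclei count for treated wells divided by that for vehicle wells, reported as medians of duplicate plates.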

TGX 221 + Pemetrexed = compound: CC1=CN2C(=O)C=C(N=C2C(=C1)C(C)NC3=CC=CC=C3)N4CCOCC4 [TGX 221] + Nc1nc2[nH]cc(CCc3ccc(C(=O)N[C@@H](CCC(=O)O)C(=O)O)cc3)c2c(=O)[nH]1 [Pemetrexed] (partner 0.2 µM)
In short: as §1

[2] = compound: O=C(CCCCCCNC(=O)c1cnc(N(c2ccccc2)c2ccccc2)nc1)NO [Ricolinostat] + CC(=O)Nc1cccc(-n2c(=O)n(C3CC3)c(=O)c3c(Nc4ccc(I)cc4F)n(C)c(=O)c(C)c32)c1 [Trametinib] (partner 0.02 µM)
In short: as §1

TGX 221 + Pictilisib = compound: CC1=CN2C(=O)C=C(N=C2C(=C1)C(C)NC3=CC=CC=C3)N4CCOCC4 [TGX 221] + CS(=O)(=O)N1CCN(Cc2cc3nc(-c4cccc5[nH]ncc45)nc(N4CCOCC4)c3s2)CC1 [Pictilisib] (partner 1 µM)
In short: as §1

| Cell Line | relative viability ([1]; first compound 0.08 µM) | relative viability ([1]; first compound 0.253 µM) | relative viability ([1]; first compound 0.8 µM) | relative viability ([1]; first compound 2.53 µM) | relative viability ([1]; first compound 8 µM) | relative viability (TGX 221 + Pemetrexed; first compound 0.08 µM) | relative viability (TGX 221 + Pemetrexed; first compound 0.253 µM) | relative viability (TGX 221 + Pemetrexed; first compound 0.8 µM) | relative viability (TGX 221 + Pemetrexed; first compound 2.53 µM) | relative viability (TGX 221 + Pemetrexed; first compound 8 µM) | relative viability ([2]; first compound 0.253 µM) | relative viability ([2]; first compound 0.8 µM) | relative viability ([2]; first compound 2.53 µM) | relative viability (TGX 221 + Pictilisib; first compound 0.08 µM) | relative viability (TGX 221 + Pictilisib; first compound 0.253 µM) | relative viability (TGX 221 + Pictilisib; first compound 0.8 µM) | relative viability (TGX 221 + Pictilisib; first compound 8 µM) | relative viability ([2]; first compound 0.08 µM) | relative viability (TGX 221 + Pictilisib; first compound 2.53 µM) |
| --- | --- | --- | --- | --- | --- | --- | --- | --- | --- | --- | --- | --- | --- | --- | --- | --- | --- | --- | --- |
| EPLC-272H | 0.665 | 0.753 | 0.856 | 0.917 | 0.509 | 0.392 | 0.279 | 0.353 | 0.295 | 0.303 | 0.284 | 0.313 | 0.26 | 0.259 | 0.295 | 0.369 | 0.339 |  |  |
| NCI-H1734 | 0.601 | 0.687 | 0.678 | 0.601 | 0.529 | 0.459 | 0.399 | 0.414 | 0.436 | 0.395 | 0.629 | 0.682 | 0.785 | 0.452 | 0.41 | 0.435 | 0.456 | 0.582 | 0.377 |
| NCI-H2087 | 0.513 | 0.587 | 0.667 | 0.811 | 0.496 | 0.745 | 0.637 | 0.582 | 0.663 | 0.672 | 0.188 | 0.173 | 0.233 | 0.989 | 0.966 | 0.883 | 0.87 | 0.211 | 0.811 |
| NCI-H522 | 0.567 | 0.674 | 0.778 | 0.56 | 0.645 | 0.811 | 1.01 | 1.13 | 1 | 0.915 | 0.711 | 0.769 | 0.832 |  |  |  |  | 0.742 |  |
| NCI-H1666 | 0.731 | 0.715 | 0.767 | 0.737 | 0.747 | 0.783 | 0.852 | 0.839 | 0.802 | 0.856 | 0.869 | 0.84 | 0.879 | 0.321 | 0.375 | 0.41 | 0.418 | 0.872 | 0.32 |
| NCI-H1915 | 0.298 | 0.265 | 0.262 | 0.273 | 0.246 | 0.459 | 0.437 | 0.526 | 0.452 | 0.516 | 0.31 | 0.309 | 0.3 | 0.892 | 0.895 | 1 | 0.949 | 0.261 | 0.805 |
| RERF-LC-KJ | 0.956 | 1.03 | 0.963 | 1.02 | 0.8 | 0.479 | 0.471 | 0.484 | 0.465 | 0.475 | 0.836 | 0.805 | 0.715 | 0.488 | 0.57 | 0.551 | 0.481 | 0.869 | 0.466 |
| NCI-H520 | 0.283 | 0.318 | 0.363 | 0.365 | 0.347 | 0.592 | 0.459 | 0.476 | 0.457 | 0.358 | 0.735 | 0.621 | 0.613 | 0.335 | 0.237 | 0.276 | 0.296 |  | 0.251 |
| NCI-H2085 | 0.754 | 0.847 | 0.771 | 0.796 | 0.702 | 0.932 | 0.759 | 0.615 | 0.523 | 0.422 | 0.491 | 0.516 | 0.513 | 0.424 | 0.444 | 0.439 | 0.46 |  | 0.425 |
| LCLC-103H | 0.605 | 0.684 | 0.789 | 0.832 | 0.718 | 0.441 | 0.481 | 0.451 | 0.455 | 0.5 | 0.599 | 0.685 | 0.77 | 0.566 | 0.592 | 0.678 | 0.609 | 0.632 | 0.577 |
| NCI-H2342 | 0.475 | 0.53 | 0.432 | 0.517 | 0.395 | 0.681 | 0.792 | 0.748 | 0.708 | 0.754 | 0.807 | 0.831 | 0.78 |  |  |  |  | 0.636 |  |
| PC-14 | 0.352 | 0.261 | 0.252 | 0.255 | 0.28 | 0.135 | 0.125 | 0.134 | 0.145 | 0.118 | 0.789 | 0.666 | 0.417 | 0.695 | 0.61 | 0.612 | 0.625 | 0.733 | 0.685 |
| Calu-6 | 0.721 | 0.595 | 0.643 | 0.63 | 0.615 |  |  |  |  |  |  |  |  | 0.953 | 0.889 | 0.86 | 0.896 |  | 0.922 |
| A549 | 0.275 | 0.208 | 0.314 | 0.375 | 0.379 |  |  |  |  |  |  |  |  | 0.485 | 0.496 | 0.46 | 0.396 |  | 0.494 |
| ABC-1 | 0.856 | 1.22 | 1.06 | 0.701 | 0.829 |  |  |  |  |  |  |  |  | 0.677 | 0.491 | 0.94 | 0.704 |  | 0.766 |
| NCI-H1703 | 0.422 | 0.417 | 0.682 | 0.336 | 0.362 |  |  |  |  |  |  |  |  | 0.234 | 0.264 | 0.251 | 0.234 |  | 0.202 |
| NCI-H1299 | 1.01 | 0.992 | 0.959 | 0.942 | 0.967 |  |  |  |  |  |  |  |  | 0.74 | 0.728 | 0.787 | 0.617 |  | 0.654 |
| NCI-H727 | 0.829 | 0.795 | 0.704 | 0.756 | 0.825 |  |  |  |  |  | 0.416 | 0.412 | 0.355 | 0.455 | 0.464 | 0.402 | 0.356 | 0.383 | 0.43 |
| EBC-1 | 0.741 | 0.701 | 0.664 | 0.719 | 0.587 |  |  |  |  |  |  |  |  | 0.331 | 0.366 | 0.369 | 0.304 |  | 0.291 |
| NCI-H1648 |  | 0.689 | 0.841 | 0.31 | 0.722 |  | 0.883 | 0.811 | 0.722 | 0.674 | 0.512 | 0.489 | 0.519 |  |  |  |  |  |  |
| SW 900 |  | 1.13 | 0.869 | 0.903 | 0.839 |  | 0.459 | 0.469 | 0.41 | 0.415 | 0.905 | 0.954 | 0.609 |  |  |  |  | 0.659 |  |
| IA-LM | 0.799 | 0.967 | 0.9 | 0.799 | 0.771 |  |  |  |  |  |  |  |  | 0.276 |  | 0.423 | 0.412 |  | 0.288 |
